{"source": "patent US20230295571A1", "about": "“COMPOSITIONS AND METHODS FOR STEM CELL CHONDROGENESIS” (Washington University, priority 2020, published 2023)", "key": {"[1]": {"test_system": "hiPSC chondrogenic pellets", "experiment": "scRNA-seq of hiPSC chondrogenic pellets with WNT inhibition", "format": "cell-based, human", "procedure": "On the day of collection for bulk RNA-seq experiments, 3-4 pellets per experimental group were pooled together and washed once with phosphate-buffered saline (PBS), snap-frozen in 300 μl of Buffer RL (Norgen Biotek), and stored at −80° C. until processing for RNA extraction. At harvesting time points for scRNA-seq experiments, 6-8 pellets per experimental group were pooled and digested with 0.04% Type II collagenase solution in DMEM/F12 for 1 h. Cells were washed once with PBS, resuspended in standard freezing medium, and stored in liquid nitrogen until needed.\nWNT-C59 and ML329 treatment for WNT and MITF inhibition. For WNT-C59 treatment for WNT inhibition during chondrogenesis, pellets were treated with either 10 ng ml^−1 TGF-β3 (control group) or a combination of 10 ng ml^−1 TGF-β3 and 1 μM WNT-C59 in a chondrogenic medium from d0 to d42 as appropriate. For WNT-C59 and ML329 treatment (ML, Axon Medchem, HY-101464) for WNT and MITF inhibition during chondrogenesis, pellets were treated with either 10 ng ml^−1 TGF-β3 (control group), a combination of 10 ng ml^−1 TGF-β3 and 1 μM ML, a combination of 10 ng ml^−1 TGF-β3 and 1 μM WNT-C59, or a combination of 10 ng ml^−1 TGF-β3, 1 μM ML and 1 μM WNT-C59 in chondrogenic medium from d0 to d42 as appropriate.\n10× chromium platform scRNA-seq. Cells were thawed at 37° C. and resuspended in PBS with 0.04% bovine serum albumin at a concentration of 2000 cells per μl. Cell suspensions were submitted to the GTAC sequencing core at Washington University in St. Louis for library preparation and sequencing. In brief, 10,000 cells per sample were loaded on a Chromium Controller (10× Genomics) for single capture. Libraries were prepared using Single Cell 3′ Library & Gel Bead Kit v2 (#120237 10× Genomics) following the manufacture's instruction. A single cell emulsion (Gel Bead-In-EMulsions, GEMs) is created by making barcoded cDNA unique to each individual emulsion. A recovery agent was added to break GEM and cDNA was then amplified. A library is produced via end repair, dA-tailing, adapter ligation, post-ligation cleanup with SPRIselect, and sample index PCR. The quality and concentration of the amplified cDNA were evaluated by Bioanalyzer (Agilent 2100) on a High Sensitivity DNA chip (Agilent, #5065-4401). The only cDNA with an average library size of 260-620 bp were used for sequencing. Sequencing was performed by IIlumina HiSeq2500 with the following read length: 26 bp for Read1, 8 bp for i7 Index, and 98 bp for Read2. We generally acquired ˜180 million reads per library (sample). A species mixing experiment (mouse adipose stem cells and human iPSCs, 1:1 mixture) was also performed prior to running on the actual sample to ensure good quality of single-cell capture (i.e., cell doublet rate<5%).\nPreprocessing of scRNA-seq data. Paired-end sequencing reads were processed by Cell Ranger (10× Genomics software, version 2.0.0). Reads were aligned to the GRCh38 (version 90) for genome annotation, demultiplexing, barcode filtering, and gene quantification. Cell Ranger also removes any barcode that has less than 10% of the 99th percentile of total unique molecular identifiers (UMI) counts per barcode as these barcodes are considered to be associated with empty droplets. After this quality control, gene barcode matrices for each sample were generated by counting the number of UMIs for a given gene (as a row) in the individual cell (as a column). For each sample, ˜1300-2500 cells were captured.\nUnsupervised clustering analysis and annotation. To assess the difference in the composition of cell populations, global unsupervised clustering analysis was performed for our scRNA-seq datasets. First, gene barcode matrices were input into the Seurat R package (version 2.4). Then, the low-quality cells with less than 200 or more than 7000 detected genes or if their mitochondrial gene content was more than 5% were removed. […]"}, "[2]": {"test_system": "hiPSC chondrogenic pellets", "experiment": "Immunohistochemistry of collagens in pellets", "format": "cell-based, human", "conditions": "pellet culture", "procedure": "WNT ligands treatment during chondrogenesis. For WNT ligands treatment during chondrogenesis, pellets were treated with either 10 ng ml^−1 TGF-β3 (control group) or a combination of 10 ng ml^−1 TGF-β3 and 100 ng ml^−1 individual WNT ligand (WNT2B, WNT3A, WNT4, WNT5B, or WNT7B, all from R&D system) in chondrogenic medium from d0 to d42 as appropriate. For WNT ligands treatment during the Cp stage, cells were supplemented with either 20 ng ml^−1 BMP4 (R&D Systems, #314-BP-010) alone (control group), a combination of 20 ng ml^−1 BMP4 and 1 μM WNT-059, or a combination of 20 ng ml^−1 BMP4 and 100 ng ml^−1 WNT3A (R&D Systems, #5036-WN-010) in mesodermal differentiation medium from d7 to d12.\nImmunohistochemistry. Histologic sections (8 μm thick) of the pellets were rinsed with xylenes three times and rehydrated before labeling. Antigen retrieval was performed with 0.02% proteinase K for 3 min at 37° C. for COL2A1 and COL6A1 and with pepsin for 5 min at room temperature for COL1A1 and COL10A1 followed by peroxidase quench then serum blocking for 30 min at room temperature. […]"}, "[3]": {"conditions": "trajectory vs TGF-β3-treated pellets"}}, "data": [{"smiles": "Cc1cc(-c2ccc(CC(=O)Nc3ccc(-c4cccnc4)cc3)cc2)ccn1", "note": "[WNT-C59]", "values": [{"measurement": "neural cells and melanocytes in pellets", "setting": "[1]; WNT-C59-treated pellets d7-d42", "result": "significantly decreased"}, {"measurement": "percentage of BMP4-expressing cells", "setting": "[1]; d14, all clusters except ISG15/IFI6/MX1+ chondrocytes", "result": "decreased percentage"}, {"measurement": "percentage of GDF5 and BMPR1B expressing cells", "setting": "[1]; d14, all clusters vs TGF-β3-treated", "result": "remarkably increased percentage"}, {"measurement": "percentage of cells expressing BMPR2", "setting": "[1]; d14, several chondrocyte subpopulations", "result": "decreased"}, {"measurement": "expression of most WNTs", "setting": "[1]; d14 and d28 pellets, particularly proliferative cells", "result": "decreased expression"}, {"measurement": "FRZB expression in chondrocyte population", "setting": "[1]; d14 pellets", "result": "upregulated"}, {"measurement": "ID2 (neurogenic marker) in proliferative cells", "setting": "[1]; d14 pellets", "result": "decreased"}, {"measurement": "PRG4 in mesenchymal cells", "setting": "[1]; d14 pellets", "result": "increased"}, {"measurement": "mesenchyme and chondrocytes content", "setting": "[1]; d14 pellets vs TGF-β3 only", "result": "more"}, {"measurement": "IFI6 and ISG15 (mature-hypertrophic chondrocyte markers)", "setting": "[1]; d28 pellets", "result": "downregulated"}, {"measurement": "expression of ACAN and COMP", "setting": "[1]; d28 pellets vs standard-treated", "result": "increased"}, {"measurement": "chondrogenic markers", "setting": "[1]; [3]", "result": "enriched expression"}, {"measurement": "neurogenic markers", "setting": "[1]; [3]", "result": "little, if any"}, {"measurement": "ACAN expression in pseudotime", "setting": "[1]; vs TGF-β3 alone", "result": "earlier induction"}, {"measurement": "COL2A1 and SOX9 expression in pseudotime", "setting": "[1]; vs TGF-β3 alone", "result": "higher levels"}, {"measurement": "SOX2 expression in pseudotime", "setting": "[1]; vs TGF-β3 alone", "result": "earlier decrease"}, {"measurement": "COL1A1 and COL10A1 staining/production", "setting": "[2]", "result": "low"}]}]}
